The values that follow come from patent US20030113312A1, “Skin barrier function and cohesion through enhanced stratum corneum acidification” (The Regents of the University of California, priority 2001, published 2003).

The subject of assay [1] is hairless mice skin (stratum corneum). The assay is described as follows: Stratum corneum cohesion: protein removed per D-Squame stripping. The assay is classed as in vivo, mouse. As to conditions: for cumulative protein loss at the fifth strip: fatty acid co-applied with BPB for three days.
Experimental: Before stripping the stratum corneum, the skin surface was cleaned with a single ethanol wipe. D-Squame tapes then were placed sequentially to the test areas for about 3 sec each, removed with forceps, and stored in glass scintillation vials at 5° C.
The protein content per stripping was determined with the Bio-Rad protein assay kit. […] Each tape was incubated with 1 M NaOH for 1 hour at 37° C. in an incubator shaker at 80 rpm, and neutralized thereafter with 1 mL of 1 M HCl in the scintillation vials. Subsequently, 0.2 mL of this solution was incubated in 0.6 ml distilled water plus 0.2 mL of the Bio-Rad protein dye for 5 minutes in boroscillate tubes. […] An empty D-Squame tape, as well as distilled water incubated with Bio-Rad dye, served as negative controls. The amount of calculated protein was then normalized to skin surface area (μg/cm^2).
The test system is the same in assay [2]. The assay can be described thus: Stratum corneum integrity: TEWL after sequential tape stripping. As to conditions: for TEWL rate by the fifth strip: fatty acid co-applied with BPB for three days; for sPLA2 inhibitor induced abnormalities in stratum corneum integrity and cohesion: fatty acid co-applied with BPB or MJ33. The assay is classed as in vivo, mouse.
Experimental: The mice were anesthetized with chloral hydrate (Morton Grove Pharmaceuticals, Morton Grove, Ill., USA). […] After 15 minutes, barrier function was determined by measurement of transepidermal water loss (TEWL) with an electrolytic water analyzer (MEECO®, Warrington, Pa.). […] Individually tested sites were covered with Hilltop Chambers (HtC, nominal volume 200 mL), which were reapplied following each indvidual measurement.

Assay [3] shares this test system. The assay is described as follows: Skin surface pH after topical treatment or buffer exposure. Type of assay: in vivo, mouse. As to conditions: free fatty acid co-applied with BPB for three days.
Experimental: Animals: Male hairless mice (Skh1/Hr, Charles River Laboratories, Wilmington, Mass.), 8-12 weeks old, were fed Purina mouse diet and water ad libitum. […] Functional experiments were performed on animals aged 6-10 weeks.
The mice were anesthetized with chloral hydrate (Morton Grove Pharmaceuticals, Morton Grove, Ill., USA). After 3 hours immersion at 37° C., the mice were removed, and the remaining buffer was gently blotted off. After 15 minutes, barrier function was determined by measurement of transepidermal water loss (TEWL) with an electrolytic water analyzer (MEECO®, Warrington, Pa.). Surface pH was measured with a flat, glass surface electrode from Mettler-Toledo (Giessen, Germany), attached to a pH meter (Skin pH Meter PH 900, Courage & Khazaka, Cologne, Germany). Individually tested sites were covered with Hilltop Chambers (HtC, nominal volume 200 mL), which were reapplied following each indvidual measurement.
The target of assay [4] is T1, NHE1 antiporter (Homo sapiens, UniProt P19634).
T1 construct: endogenous in cells; host or cells: second passage cultured human keratinocytes from human foreskin (CHK)
The assay is described as follows: Intracellular pH (BCECF) and recovery from acid load in cultured human keratinocytes. Type of assay: cell-based. As to the method: Assessment of Intracellular pH: Keratinocytes were plated on glass coverslips and grown in Cascade 154 medium containing 0.07 mM Ca^2+. The coverslips were incubated in 145 μM BCECF-AM ester at room temperature for 5 minutes, then rinsed for 30 minutes in buffer containing either 28 mM HEPES, 136 mM NaCl, 5 mM KCl, 0.07 mM CaCl2 and 10 mM glucose, pH 7.4 or Ringer solution (136 mM NaCl, 5 mM KCl, 0.03 mM Ca2+, 28 mM TES, 14 mM Na HCO3, NaOH to adjust the pH to 7.4, and 10 mM glucose (pH 7.4, 330 mOsm)). BCECF-AM-ester is membrane permeable; once inside cells it is de-esterified by endogenous […], trapping flourescently-active, acidic BCECF inside the cells. The BCECF-loaded cells were placed in a superfusion chamber mounted on a inverted microscope (Nikon). The keratinocytes were superfused with one of the two solutions, and baseline intracellular pH was monitored constantly using a ratiometric method (Paradiio et al (1987) Am J. Physiol. 253:C30-6). Briefly, BCECF loaded cells were alternately illuminated every 10 seconds with brief flashes (200 milliseconds) of 440 nm and 490 nm light. The resultant fluorescence (at 530 nm) from each stimulating wavelength was measured with a CCD camera (Hamamatsu) digitally ratioed, and stored using a software program (Fluor, Universal Imaging Co., West Chester, Pa.). Whereas fluorescence emission at 440 nm excitation remains constant, indicative of dye concentration, emission from 490 nm varies proportionally with changes intracellular pH. By ratioing the two signals, intracellular pH is measured as a brightness signal corrected for the intracellular dye concentration.
Calibration was performed at the end of each experiment by permeablizing the cells to protons with nigericin, thereby equilibrating intra- and extracellular pH. Superfusing the cells with solutions containing 85 mM NaCl, 50 mM KCl, 0.07 mM CaCl2, […] nigericin (a K^+/H^+ exchanger), and either 28 mM HEPES, or 28 mM TES bubbled with 5% CO2, pH 6.8 or 7.8, allowed to calibrate intracellular signals. […]

The target in assay [5] is T2, NHE1 antiporter (Mus musculus, UniProt Q61165).
T2 construct: from tissue; host or cells: skin (epidermis / stratum corneum) of living hairless mice
The assay is described as follows: Barrier recovery (TEWL) after tape stripping. The assay is classed as in vivo. As to conditions: for kinetics of barrier recovery after tape-stripping: NHE1 inhibitors, topical, hairless mice. As to the method:
(§1) Permeability Barrier Studies: Normal hairless mice were treated topically twice a daily for three days with BPB (4 mg/mL) or MJ33 (4 mg/mL) both in propylene glycol:ethanol (7:3 v/v) vehicle, or the vehicle alone on an area of 5-6 cm on the backs and flanks as described previously (Mao-Qiang, M., et al., J. Lipid Res. 36:1926-35 (1995)). The doses employed were shown previously to be non-toxic to Murine skin (Mao-Qiang, M., et al. (1995); Mao-Qiang, M., et al., J. Invest. Dermatol. 106:57-63 (1996)), and to inhibit secretory phospholipase A2 (sPLA2) activity selectively in different cell types (Gelb, M. H., et al., Faseb J. 8:916-24 (1994); Jain, M. K., et al. (1991)). The acidification experiments were performed with 10 mM HEPES-buffer, adjusted to either pH 5.5 or pH 7.4 as follows: One flank of anesthetized mice was immersed on a mesh netting, as described previously (Lee, S. H., et al., J. Clin. Invest. 89:530-8 (1992)). The mice were anesthetized with chloral hydrate (Morton Grove Pharmaceuticals, Morton Grove, Ill., USA). After 3 hours immersion at 37° C., the mice were removed, and the remaining buffer was gently blotted off. After 15 minutes, barrier function was determined by measurement of transepidermal water loss (TEWL) with an electrolytic water analyzer (MEECO®, Warrington, Pa.). Surface pH was measured with a flat, glass surface electrode from Mettler-Toledo (Giessen, Germany), attached to a pH meter (Skin pH Meter PH 900, Courage & Khazaka, Cologne, Germany). Individually tested sites were covered with Hilltop Chambers (HtC, nominal volume […]), which were reapplied following each indvidual measurement.
(§2) The stratum corneum was removed by several strippings with adhesive tape (Tesa, Beiersdorf, Germany) inducing an increase in TEWL rates above baseline (from 0.2 to approximately 7-9 g/m^2/h). Two sites were prepared on each animal, and TEWL and surface pH were measured at 0, 2, 5 and 24 hrs following the stripping and the applications of inhibitors. Biopsies were taken for electron microscopy from treated and control sites, at 5 and 24 hours. For studies in the NHE1 knockout mice, homozygous (−/−) mice were compared to their wildtype (+/+) littermates. Flanks of these mice were shaved, and barrier homostasis was studied 48 hours later. For tape-stripping of these animals, D-Squame disks (Cu-derm, Dallas, Tex.) were used, as Tesa tape was too disruptive for application to shaved, hairy mouse skin.
Hairless mice were tape stripped to TEWL of 7-9 g/m^2/h. […] Control areas were covered with Hilltop Chambers containing 10 mM HEPES buffer adjusted to pH 7.4 or pH 5.5 as appropriate. TEWL was measured at 0, 2, 5, and 24 hours post tape-strip. The results are reported as percent barrier recovery from the initial induced defect.

In assay [6] the test system is hairless mice skin (stratum corneum). The assay is described as follows: Electron microscopy of lamellar body secretion and extracellular lipid processing. The assay is classed as in vivo, mouse. As to conditions: EM of biopsies. The procedure:
as §2
Ultrastructural methods: Freshly obtained biopsies from mouse skin were fixed directly in modified Karnovsky's fixative, postfixed with reduced osmium tetroxide (OS04) and then imbedded in an Epon-epoxy mixture. For visualization of lipid-enriched, lamellar bilayer structures, some samples were post fixed in ruthenium tetroxide (RuO4). Sections were cut on a Reichert Ultracut E microtome, counterstained with uranyl acetate and lead citrate, and viewed in a Zeiss 10 CR electron microscope, operated at 60 kV.
Biopsies were taken during time course experiments.

Assay [7] addresses T2, NHE1 antiporter. The assay is described as follows: Stratum corneum surface pH after tape stripping with buffers with or without NHE1 inhibitor. The assay is classed as in vivo. As to the method: as §1, §2
To investigate the role of NHE 1 in maintaining the pH balance of the stratum corneum, the integrity of murine skin exposed to different buffers and NHE1 inhibitors, was disrupted by tape-stripping. The pH of the exposed skin was measured before and after tape-stripping. Before tape-stripping, the surface pH in all animals was acidic (6.03+/−0.20, n=78). […] At five hours post-tape-strip, these samples were still not fully recovered, remaining more than 0.05 pH units higher than the initial post-tape-strip values.

Setting [8] is: inhibitor in pH 7.4 buffer (amiloride 5 μM, HOE694 7.5 μM), two hours post tape-strip.
Setting [9] is: inhibitor in pH 7.4 buffer, five hours post tape-strip.
The mark [10] stands for this setting: fatty acid co-applied with MJ33 for three days.
Where [11] appears, read: HOE694 in pH 7.4 buffer, two hours post tape strip.

T1 sequence (P19634 whole entry): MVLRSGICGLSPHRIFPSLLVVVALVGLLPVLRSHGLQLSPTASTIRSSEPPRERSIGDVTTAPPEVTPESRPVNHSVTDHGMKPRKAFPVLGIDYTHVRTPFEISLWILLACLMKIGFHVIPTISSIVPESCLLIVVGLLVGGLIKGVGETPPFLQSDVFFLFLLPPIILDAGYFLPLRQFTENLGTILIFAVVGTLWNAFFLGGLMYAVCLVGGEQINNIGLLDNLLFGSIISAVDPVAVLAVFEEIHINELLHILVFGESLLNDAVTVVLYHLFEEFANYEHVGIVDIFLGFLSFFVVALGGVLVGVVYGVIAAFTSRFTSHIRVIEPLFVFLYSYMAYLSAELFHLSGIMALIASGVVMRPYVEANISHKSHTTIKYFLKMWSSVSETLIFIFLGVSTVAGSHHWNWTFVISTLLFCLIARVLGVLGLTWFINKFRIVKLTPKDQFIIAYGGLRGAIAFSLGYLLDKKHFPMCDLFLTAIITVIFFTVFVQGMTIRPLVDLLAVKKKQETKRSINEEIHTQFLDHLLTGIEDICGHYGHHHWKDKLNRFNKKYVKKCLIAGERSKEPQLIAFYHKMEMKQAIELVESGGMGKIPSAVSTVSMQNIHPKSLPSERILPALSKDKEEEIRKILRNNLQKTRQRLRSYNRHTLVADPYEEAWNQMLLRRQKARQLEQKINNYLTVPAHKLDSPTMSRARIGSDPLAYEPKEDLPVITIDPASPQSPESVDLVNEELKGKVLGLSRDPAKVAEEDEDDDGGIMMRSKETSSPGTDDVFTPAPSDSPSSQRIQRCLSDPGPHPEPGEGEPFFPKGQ
T2 sequence (Q61165 whole entry): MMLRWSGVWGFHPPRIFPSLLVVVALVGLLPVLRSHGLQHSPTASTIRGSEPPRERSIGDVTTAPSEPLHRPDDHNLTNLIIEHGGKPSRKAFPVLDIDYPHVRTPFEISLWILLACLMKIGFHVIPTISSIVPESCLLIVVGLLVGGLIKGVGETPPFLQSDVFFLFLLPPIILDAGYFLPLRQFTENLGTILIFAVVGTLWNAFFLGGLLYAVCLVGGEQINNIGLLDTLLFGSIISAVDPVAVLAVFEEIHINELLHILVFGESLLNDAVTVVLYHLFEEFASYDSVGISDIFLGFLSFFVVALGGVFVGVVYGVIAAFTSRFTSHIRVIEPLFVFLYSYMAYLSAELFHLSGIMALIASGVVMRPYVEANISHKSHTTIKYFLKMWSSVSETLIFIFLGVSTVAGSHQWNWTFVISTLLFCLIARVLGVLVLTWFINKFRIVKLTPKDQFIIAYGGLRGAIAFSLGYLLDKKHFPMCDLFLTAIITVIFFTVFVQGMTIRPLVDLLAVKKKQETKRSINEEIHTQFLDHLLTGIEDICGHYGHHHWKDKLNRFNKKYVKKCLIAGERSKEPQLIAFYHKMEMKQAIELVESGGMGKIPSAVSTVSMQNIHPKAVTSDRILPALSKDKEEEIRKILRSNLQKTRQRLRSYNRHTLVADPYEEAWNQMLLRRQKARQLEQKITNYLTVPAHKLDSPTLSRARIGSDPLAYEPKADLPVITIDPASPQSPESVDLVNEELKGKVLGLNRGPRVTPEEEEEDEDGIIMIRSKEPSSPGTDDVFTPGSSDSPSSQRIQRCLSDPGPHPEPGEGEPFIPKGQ

Consider `CCCCCCCCCCCCCCCCCC(=O)O` [stearic acid], for which the “cumulative protein loss at the fifth strip” value in assay [1] is on record as “about 25 μg/cm^2”. Moreover, in assay [2], the “TEWL rate by the fifth strip” value is “about 25 g/m^2/h”; the “sPLA2 inhibitor induced abnormalities in stratum corneum integrity and cohesion” value (shortened to “sPLA2 inhibitor induced abnormalities”) is reported as “prevented emergence”. In addition, the “pH of the stratum corneum” value in assay [3] is listed as 5.73+/−0.09.

With `CCCCC/C=C\C/C=C\CCCCCCCC(=O)O` [linoleic acid], the “sPLA2 inhibitor induced abnormalities” value in assay [2] was “to a lesser extent”. Besides, the “pH of the stratum corneum” value in assay [3] is reported as 5.77+/−0.10.

`N=C(N)NC(=O)c1nc(Cl)c(N)nc1N` [amiloride, N-Amido-3,5-diamino-6-chloropyrazinecarboxamide]: on NHE1 antiporter [4] (cultured human keratinocytes, wash out of amiloride, recovery from the acid load), the “effect after wash out period” value is “non-permanent, non-toxic effect”. The “kinetics of barrier recovery after tape-stripping” value on NHE1 antiporter [5] was “delayed barrier recovery”. For the same compound, the “percent barrier recovery (TEWL rate less than the initial induced rate)” value is “about 12%” at NHE1 antiporter [5] (setting [8]) and “about 25%” on NHE1 antiporter [5] (setting [9]).

Take `CCCCCCCCCCCCCCCC(=O)O` [palmitic acid]: the “cumulative protein loss at the fifth strip” value in assay [1] is recorded as “about 40 μg/cm^2”. In addition, the “loss of protein after three strippings” value in assay [1] (setting [10]) is “about 30 μg/cm^2”. In assay [2], the “TEWL rate by the fifth strip” value is reported as 55-60 g/m^2/h; the “sPLA2 inhibitor induced abnormalities” value was “prevented emergence”. For the same compound, the “TEWL rate after three sequential tape-strippings” value in assay [2] (setting [10]) is recorded as 30-35 g/m^2/h. The “pH of the stratum corneum” value in assay [3] is 5.40+/−0.14.

`CS(=O)(=O)c1cc(C(=O)NC(=N)N)ccc1N1CCCCC1` [HOE694, 3-methylsulfonyl-4-piperidino-benzoylguanidinemethanesulfonate]: the figures for the “extracellular processing of secreted lipids” value in assay [6] (HOE694 in pH 5.5 buffer) and in assay [6] (HOE694 in pH 7.4 buffer) were “appeared normal” and “defective”, respectively. The “lamellar body formation and secretion” value in assay [6] (HOE694 in pH 7.4 buffer) is given as “undisturbed”. The “intracellular pH” value at NHE1 antiporter [4] (1.5 μM for 16 hours, dropped from pH 7.05) is on record as 6.90 pH. The “initial post-tape-strip pH value vs pH 5.5 buffer alone” value at NHE1 antiporter [7] (HOE694 in pH 5.5 buffer) is reported as “increased significantly”. Further, the “pH increase over the initial post-tape-strip value” is “more than 0.05 pH units” on NHE1 antiporter [7] (HOE694 in pH 5.5 buffer, five hours post-tape-strip); “more than 0.1 pH units” on NHE1 antiporter [7] (HOE694 in pH 5.5 buffer, two hours post-tape-strip); over 0.1 pH unit at NHE1 antiporter [7] (setting [11]). Further, at NHE1 antiporter [7] (HOE694 in pH 7.4 buffer), the “initial post-tape-strip pH value vs pH 7.4 buffer only” value is “similar”. In addition, the “elevated pH at five hours” value on NHE1 antiporter [7] (HOE694 in pH 7.4 buffer, five hours post tape strip) was “persisted and even increased”. The “pH increase over the two hour time point of pH 7.4 buffer alone” value at NHE1 antiporter [7] (setting [11]) was about 0.05 pH units. For the same compound, the “percent barrier recovery (TEWL rate less than the initial induced rate)” value on NHE1 antiporter [5] (HOE694 in pH 5.5 buffer, 2 hours post tape-strip) is recorded as 25%; at NHE1 antiporter [5] (HOE694 in pH 5.5 buffer, 5 hours post tape-strip), 38%; on NHE1 antiporter [5] (HOE694 in pH 5.5 buffer, 24 hours post tape-strip), 75%; at NHE1 antiporter [5] (setting [8]), “about 12%”; at NHE1 antiporter [5] (inhibitor in pH 7.4 buffer, 24 hours post tape-strip) it was “about 45%”; on NHE1 antiporter [5] (setting [9]), 23%. Moreover, the “kinetics of barrier recovery after tape-stripping” value at NHE1 antiporter [5] is recorded as “delayed barrier recovery”.

Take `Cl.N` [NH4Cl, ammonium chloride]: on NHE1 antiporter [4] (NH4Cl added to cultures of CHK, initial alkalinization, then after dissociation of the ammonium ion), the “intracellular pH response” value was “take on an acid load”.
